From US10172832B2, “Amide derivatives of N-urea substituted amino acids as formyl peptide receptor like-1 (FPRL-1) receptor modulators” (Allergan, Inc., priority 2011, dated 2019)

Target: T1, FPRL-1 (Homo sapiens, UniProt P25090)
T1 construct: expressed in transfected cells
T1 sequence (P25090 1-351): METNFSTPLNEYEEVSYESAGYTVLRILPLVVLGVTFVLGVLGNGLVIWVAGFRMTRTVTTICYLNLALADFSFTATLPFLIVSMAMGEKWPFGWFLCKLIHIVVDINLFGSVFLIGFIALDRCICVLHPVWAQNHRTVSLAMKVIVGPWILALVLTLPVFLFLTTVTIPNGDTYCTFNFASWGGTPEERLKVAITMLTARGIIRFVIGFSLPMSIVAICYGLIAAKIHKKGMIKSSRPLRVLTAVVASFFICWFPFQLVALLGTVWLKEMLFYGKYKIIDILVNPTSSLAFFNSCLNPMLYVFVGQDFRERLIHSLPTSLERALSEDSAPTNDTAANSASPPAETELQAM
Experiment: compound-induced calcium activity on FLIPR Tetra in CHO-Gα16 cells stably expressing FPRL1
Type: cell-based
Conditions: for FPRL-1 Ga16-CHO (Rel. eff.): relative efficacy; for EC50: tested 0.61 to 10,000 nM, read-out: FPRL-1 Ga16-CHO EC50
Outline: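 CHO-Gα16 cells stably expressing FPRL1, plated at 18,000 cells/well the day before, were read for compound-induced calcium response on FLIPR Tetra.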

| SMILES | FPRL-1 Ga16-CHO (Rel. eff.) | EC50 [nM] |
| --- | --- | --- |
| CC(C)C[C@@H](NC(=O)Nc1ccc(Br)cc1)C(=O)NC(C)(C)C(=O)O [Compound 87, 2-{[(2R)-2-{[(4-bromophenyl)carbamoyl]amino}-4-methylpentanoyl]amino}-2-methylpropanoic acid] | (0.74) | 490 |
| CC(C)(C)OC(=O)CNC(=O)C(CC(N)=O)NC(=O)Nc1ccc(Br)cc1 (centres unmarked) [Compound 88, tert-butyl {[4-amino-2-{[(4-bromophenyl)carbamoyl]amino}-4-oxobutanoyl]amino}acetate] | (0.90) | 2310 |
| NC(=O)CC(NC(=O)Nc1ccc(Br)cc1)C(=O)NCC(=O)O (centres unmarked) [[(4-amino-2-{[(4-bromophenyl)carbamoyl]amino}-4-oxobutanoyl)amino]acetic acid] | (0.81) | 2940 |
| CCC[C@H](NC(=O)Nc1ccc(Br)cc1F)C(=O)NCC(=O)OC(C)(C)C [tert-butyl {[(2S)-2-{[(4-bromo-2-fluorophenyl)carbamoyl]amino}pentanoyl]amino}acetate] | (0.95) | 83 |
| O=C(O)CNC(=O)C(Cc1c[nH]c2ccccc12)NC(=O)Nc1ccc(Br)cc1 (centres unmarked) [{[2-{[(4-bromophenyl)carbamoyl]amino}-3-(1H-indol-3-yl)propanoyl]amino}acetic acid] | (0.97) | 0.73 |
| CC(C)C[C@@H](NC(=O)Nc1ccc(Br)cc1F)C(=O)NCC(=O)O [{[(2R)-2-{[(4-bromo-2-fluorophenyl)carbamoyl]amino}-4-methylpentanoyl]amino}acetic acid] | (0.87) | 1490 |
| CCC[C@H](NC(=O)Nc1ccc(Br)cc1F)C(=O)NCC(=O)O [{[(2S)-2-{[(4-bromo-2-fluorophenyl)carbamoyl]amino}pentanoyl]amino}acetic acid] | (0.92) | 4.8 |
